What was measured:
ER-α in MCF-7 cells = biological target: T1, ER-α in MCF-7 cells (Homo sapiens, UniProt P03372); assay: Breast cancer cell ER-α in cell western assay (SP1); type: cell-based; set-up: endogenous in cells; host or cells: MCF-7; details: 4 or 24 hr post compound addition; for Emax: MCF7, SP1 antibody, read-out: ER-α In Cell Western Assay (SP1) Max Response; for DC50: SP1 antibody, read-out: ER-α In Cell Western Assay (SP1) IC50
T1 sequence (P03372 1-595): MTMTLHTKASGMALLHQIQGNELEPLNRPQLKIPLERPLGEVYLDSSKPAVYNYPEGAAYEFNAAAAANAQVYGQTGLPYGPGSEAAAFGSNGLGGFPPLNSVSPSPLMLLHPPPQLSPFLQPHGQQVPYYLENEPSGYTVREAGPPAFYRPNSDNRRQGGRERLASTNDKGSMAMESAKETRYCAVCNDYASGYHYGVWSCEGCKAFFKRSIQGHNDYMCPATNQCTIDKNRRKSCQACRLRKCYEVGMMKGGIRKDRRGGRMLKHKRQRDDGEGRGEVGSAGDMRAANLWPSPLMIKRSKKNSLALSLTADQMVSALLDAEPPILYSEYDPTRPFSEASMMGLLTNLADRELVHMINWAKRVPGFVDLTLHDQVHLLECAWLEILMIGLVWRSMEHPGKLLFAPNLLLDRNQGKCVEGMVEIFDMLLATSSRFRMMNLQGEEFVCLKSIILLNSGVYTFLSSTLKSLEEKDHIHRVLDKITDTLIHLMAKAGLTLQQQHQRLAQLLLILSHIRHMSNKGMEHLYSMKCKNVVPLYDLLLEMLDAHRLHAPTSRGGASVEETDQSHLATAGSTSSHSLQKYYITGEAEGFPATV
Procedure, shortened: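 Read-out is infrared in-cell western: SP1-detected ER intensity at 800 nm divided by DRAQ5 DNA intensity at 700 nm, relative to untreated wells ×100.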

MCF-7 cells = assay: Breast cancer cell viability assay (CellTiter-Glo, 5 days); type: cell-based; details: 5 days' compound exposure; for IC50: Homo sapiens, MCF7, 120 h
Procedure, shortened: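 Eleven-point semilog compound series, final 0.3-0.000003 μM, added to overnight-adhered MCF-7 cells (320/well; RPMI, 10% FBS, 20 mM HEPES) for 5 days. Viability read by CellTiter-Glo luminescence, background from medium without cells subtracted, expressed relative to untreated cells.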

Row | Emax (ER-α in MCF-7 cells) | DC50 (ER-α in MCF-7 cells) | IC50 (MCF-7 cells) | Compound | MCF7 Viability Assay Max Response (MCF-7 cells)
1 | ≥ 40% | ≤ 100 nM | ≤ 100 nM | CC/C(=C(/c1ccc(/C=C/C(=O)O)cc1)c1ccc2[nH]ncc2c1)c1ccc(Oc2ccccc2)cc1C [Compound 319, (E)-3-(4-((E)-1-(1H-Indazol-5-yl)-2-(2-methyl-4-phenoxyphenyl)but-1-en-1-yl)phenyl)acrylic acid] | ++ (++ = a single % value ≧ 40%)
2 | ≥ 40% | ≤ 100 nM | ≤ 100 nM | CC/C(=C(/c1ccc(/C=C/C(=O)O)cc1)c1ccc2[nH]ncc2c1F)c1ccncc1Cl [Compound 224, (E)-3-(4-((E)-2-(3-Chloropyridin-4-yl)-1-(4-fluoro-1H-indazol-5-yl)but-1-en-1-yl)phenyl)acrylic acid] | ++ (++ = a single % value ≧ 40%)
3 | ≥ 40% | > 100 nM | > 100 nM | CC/C(=C(/c1ccc(OCC(=O)O)cc1)c1ccc2[nH]ncc2c1)c1ccccc1 [Compound 190, (E)-2-(4-(1-(1H-Indazol-5-yl)-2-phenylbut-1-en-1-yl)phenoxy)acetic acid] | ++ (++ = a single % value ≧ 40%)
4 | ≥ 40% |  | ≤ 100 nM | CC/C(=C(/c1ccc(/C=C/C(=O)O)cc1)c1ccc2[nH]c(=O)oc2c1)c1ccccc1 [Compound 66, (E)-3-(4-((E)-1-(2-Oxo-2,3-dihydrobenzo[d]oxazol-6-yl)-2-phenylbut-1-en-1-yl)phenyl)acrylic acid] | ++ (++ = a single % value ≧ 40%)
5 | ≥ 40% | ≤ 100 nM | ≤ 100 nM | CC/C(=C(/c1ccc(/C=C/C(=O)NS(=O)(=O)c2cccnc2)cc1)c1ccc2[nH]ncc2c1)c1ccc(F)cc1Cl [Compound 433, (E)-3-(4-((E)-2-(2-Chloro-4-fluorophenyl)-1-(1H-indazol-5-yl)but-1-en-1-yl)phenyl)-N-(pyridin-3-ylsulfonyl)acrylamide] | ++ (++ = a single % value ≧ 40%)
6 | ≥ 40% | ≤ 100 nM | > 100 nM | CC/C(=C(/c1ccc(/C=C/C(=O)O)cc1)c1ccc2[nH]ncc2c1F)c1cccc(OC2CCOCC2)c1 [Compound 344, (E)-3-(4-((E)-1-(4-Fluoro-1H-indazol-5-yl)-2-(3-((tetrahydro-2H-pyran-4-yl)oxy)phenyl)but-1-en-1-yl)phenyl)acrylic acid] | ++ (++ = a single % value ≧ 40%)
7 | ≥ 40% | ≤ 100 nM | > 100 nM | CC/C(=C(/c1ccc(CCC(=O)O)cc1)c1ccc2[nH]ncc2c1)c1ccccc1 [Compound 338, (E)-3-(4-(1-(1H-Indazol-5-yl)-2-phenylbut-1-en-1-yl)phenyl)propanoic acid] | ++ (++ = a single % value ≧ 40%)
8 | ≥ 40% | ≤ 100 nM | ≤ 100 nM | CC/C(=C(/c1ccc(/C=C/C(=O)O)cc1)c1ccc2[nH]ncc2c1F)c1ccc(Oc2ccccn2)cc1 [Compound 296, (E)-3-(4-((E)-1-(4-Fluoro-1H-indazol-5-yl)-2-(4-(pyridin-2-yloxy)phenyl)but-1-en-1-yl)phenyl)acrylic acid] | ++ (++ = a single % value ≧ 40%)
9 | ≥ 40% | ≤ 100 nM | ≤ 100 nM | O=C(O)/C=C/c1ccc(/C(=C(\c2ccc(F)cc2Cl)C2CC2)c2cccc3[nH]ncc23)cc1 [Compound 73, (E)-3-(4-((E)-2-(2-Chloro-4-fluorophenyl)-2-cyclopropyl-1-(1H-indazol-4-yl)vinyl)phenyl)acrylic acid] | ++ (++ = a single % value ≧ 40%)
10 | ≥ 40% | ≤ 100 nM | ≤ 100 nM | CC/C(=C(/c1ccc(/C=C/C(=O)O)cc1)c1ccc2[nH]ncc2c1)c1ccsc1C [Compound 214, (E)-3-(4-((E)-1-(1H-Indazol-5-yl)-2-(2-methylthiophen-3-yl)but-1-en-1-yl)phenyl)acrylic acid] | ++ (++ = a single % value ≧ 40%)
11 | ≥ 40% | > 100 nM | > 100 nM | CC/C(=C(/c1ccc(/C=C/C(=O)O)cc1)c1ccc2c(c1)COC(=O)N2)c1ccccc1 [Compound 101, (E)-3-(4-((E)-1-(2-Oxo-2,4-dihydro-1H-benzo[d][1,3]oxazin-6-yl)-2-phenylbut-1-en-1-yl)phenyl)acrylic acid] | ++ (++ = a single % value ≧ 40%)
12 | < 40% | > 100 nM | > 100 nM | CC/C(=C(/c1ccc(/C=C/C(=O)O)cc1)c1ccc2[nH]ncc2c1)c1cccc(OCC(=O)O)c1 [Compound 347, (E)-3-(4-((E)-2-(3-(Carboxymethoxy)phenyl)-1-(1H-indazol-5-yl)but-1-en-1-yl)phenyl)acrylic acid] | + (+ = a single % value < 40%)
13 | ≥ 40% |  | > 100 nM | CC/C(=C(/c1csc(/C=C/C(=O)O)c1)c1ccc2[nH]ncc2c1)c1ccccc1 [Compound 186, (E)-3-(4-((Z)-1-(1H-Indazol-5-yl)-2-phenylbut-1-en-1-yl)thiophen-2-yl)acrylic acid] | + (+ = a single % value < 40%)
14 | ≥ 40% | ≤ 100 nM | ≤ 100 nM | CC/C(=C(/c1ccc(/C=C/C(=O)O)cc1)c1coc2c(OC)cccc12)c1ccccc1 [Compound 163, (E)-3-(4-((E)-1-(7-Methoxybenzofuran-3-yl)-2-phenylbut-1-en-1-yl)phenyl)acrylic acid] | ++ (++ = a single % value ≧ 40%)
15 | ≥ 40% | ≤ 100 nM | ≤ 100 nM | CC/C(=C(/c1ccc(/C=C/C(=O)NC)cc1)c1ccc2[nH]ncc2c1)c1ccc(F)cc1Cl [Compound 420, (E)-3-(4-((E)-2-(2-Chloro-4-fluorophenyl)-1-(1H-indazol-5-yl)but-1-en-1-yl)phenyl)-N-methylacrylamide] | ++ (++ = a single % value ≧ 40%)
16 | ≥ 40% | ≤ 100 nM | ≤ 100 nM | CC/C(=C(/c1ccc(/C=C/C(=O)O)cc1)c1ccc2[nH]ncc2c1)c1ccc(C)s1 [Compound 227, (E)-3-(4-((E)-1-(1H-Indazol-5-yl)-2-(5-methylthiophen-2-yl)but-1-en-1-yl)phenyl)acrylic acid] | ++ (++ = a single % value ≧ 40%)
17 | ≥ 40% | > 100 nM | > 100 nM | CC/C(=C(/c1ccc(/C=C/C(=O)O)cc1)c1ccc2[nH]ncc2c1)c1cnsc1 [Compound 225, (E)-3-(4-((E)-1-(1H-Indazol-5-yl)-2-(isothiazol-4-yl)but-1-en-1-yl)phenyl)acrylic acid] | ++ (++ = a single % value ≧ 40%)
18 | ≥ 40% | > 100 nM | > 100 nM | CC/C(=C(/c1ccc(/C=C/C(=O)O)cc1)c1ccc2[nH]ncc2c1)c1cnc(C)s1 [Compound 229, (E)-3-(4-((E)-1-(1H-Indazol-5-yl)-2-(2-methylthiazol-5-yl)but-1-en-1-yl)phenyl)acrylic acid] | ++ (++ = a single % value ≧ 40%)
19 | ≥ 40% | ≤ 100 nM | > 100 nM | CC/C(=C(/c1ccc(/C=C/C(=O)O)cc1)c1ccc2scnc2c1)c1cccc(Oc2ccccn2)c1 [Compound 300, (E)-3-(4-((E)-1-(Benzo[d]thiazol-5-yl)-2-(3-(pyridin-2-yloxy)phenyl)but-1-en-1-yl)phenyl)acrylic acid] | ++ (++ = a single % value ≧ 40%)
20 | ≥ 40% | > 100 nM | > 100 nM | CC/C(=C(/c1ccc(/C=C/C(=O)O)cc1)c1cccc2[nH]nnc12)c1ccccc1 [Compound 88, (E)-3-(4-((E)-1-(1H-Benzo[d][1,2,3]triazol-4-yl)-2-phenylbut-1-en-1-yl)phenyl)acrylic acid] | ++ (++ = a single % value ≧ 40%)
21 | ≥ 40% | ≤ 100 nM | ≤ 100 nM | CC/C(=C(/c1ccc(/C=C/C(=O)O)cc1)c1cc(F)c2[nH]ncc2c1)c1ccncc1Cl [Compound 245, (E)-3-(4-((E)-2-(3-chloropyridin-4-yl)-1-(7-fluoro-1H-indazol-5-yl)but-1-en-1-yl)phenyl)acrylic acid] | ++ (++ = a single % value ≧ 40%)
22 | ≥ 40% | ≤ 100 nM | ≤ 100 nM | CC/C(=C(/c1ccc(/C=C/C(=O)O)cc1)c1ccc2[nH]ncc2c1)c1ccc(OCCOC)cc1 [Compound 339, (E)-3-(4-((E)-1-(1H-Indazol-5-yl)-2-(4-(2-methoxyethoxy)phenyl)but-1-en-1-yl)phenyl)acrylic acid] | ++ (++ = a single % value ≧ 40%)

Reference: patent US9399646B2 (Genentech, Inc., priority 2010, dated 2016)
